From US11306092B2, “Amino indole compounds useful as TLR inhibitors” (BRISTOL-MYERS SQUIBB COMPANY, priority 2017, dated 2022)
pIC50: −log10 of the molar value.

Legend:
Assay type in all cases: cell-based
human TLR7 = target: T1, human TLR7 (Homo sapiens, UniProt Q9NYK1); assay: TLR7 inhibition reporter assay (HEK-Blue SEAP reporter); conditions: HEK-Blue cells overexpressing human TLR7; gardiquimod 7.5 μM; 22 hour incubation
T1 construct: host or cells: HEK-Blue cells
T1 sequence (Q9NYK1 27-1049): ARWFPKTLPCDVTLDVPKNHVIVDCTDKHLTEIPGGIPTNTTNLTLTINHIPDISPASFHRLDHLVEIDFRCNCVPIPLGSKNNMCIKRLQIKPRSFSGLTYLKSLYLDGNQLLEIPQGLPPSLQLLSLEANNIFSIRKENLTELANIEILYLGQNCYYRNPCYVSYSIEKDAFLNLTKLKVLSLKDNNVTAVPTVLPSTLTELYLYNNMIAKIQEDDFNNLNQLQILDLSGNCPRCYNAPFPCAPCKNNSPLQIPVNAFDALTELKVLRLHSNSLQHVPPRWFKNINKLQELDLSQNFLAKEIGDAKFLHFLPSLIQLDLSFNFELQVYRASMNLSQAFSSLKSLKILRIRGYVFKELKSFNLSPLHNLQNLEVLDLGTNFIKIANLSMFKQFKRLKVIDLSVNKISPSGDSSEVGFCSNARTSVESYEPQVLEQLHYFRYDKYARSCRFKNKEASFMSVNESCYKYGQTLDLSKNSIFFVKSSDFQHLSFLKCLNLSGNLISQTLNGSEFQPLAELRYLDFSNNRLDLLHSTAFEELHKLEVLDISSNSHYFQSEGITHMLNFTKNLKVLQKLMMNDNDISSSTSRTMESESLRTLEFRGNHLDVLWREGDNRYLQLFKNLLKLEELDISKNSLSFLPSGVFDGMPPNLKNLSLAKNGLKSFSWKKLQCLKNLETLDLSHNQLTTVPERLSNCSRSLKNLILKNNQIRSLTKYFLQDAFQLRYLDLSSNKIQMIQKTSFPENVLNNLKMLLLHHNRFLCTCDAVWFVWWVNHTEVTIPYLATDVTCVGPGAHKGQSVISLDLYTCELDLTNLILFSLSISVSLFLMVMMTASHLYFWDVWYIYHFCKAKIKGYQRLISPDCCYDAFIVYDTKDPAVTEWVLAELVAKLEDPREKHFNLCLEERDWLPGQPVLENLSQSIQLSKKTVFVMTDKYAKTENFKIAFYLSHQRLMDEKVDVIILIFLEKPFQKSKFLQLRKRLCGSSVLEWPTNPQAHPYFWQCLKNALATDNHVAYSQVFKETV
In short: (§1)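 Screening used HEK-Blue cells overexpressing one human TLR (7, 8 or 9) and an IFN-β minimal promoter–NF-κB/AP-1 SEAP construct. Stimulation lasted 22 h at 37 °C with receptor-specific agonist: gardiquimod, R848 or ODN2006 at 7.5 μM, 15.9 μM and 5 nM.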

human TLR8 = target: T2, human TLR8 (Homo sapiens, UniProt Q9NR97); assay: TLR8 inhibition reporter assay (HEK-Blue SEAP reporter); conditions: HEK-Blue cells overexpressing human TLR8; R848 15.9 μM; 22 hour incubation
T2 construct: host or cells: HEK-Blue cells
T2 sequence (Q9NR97 27-1041): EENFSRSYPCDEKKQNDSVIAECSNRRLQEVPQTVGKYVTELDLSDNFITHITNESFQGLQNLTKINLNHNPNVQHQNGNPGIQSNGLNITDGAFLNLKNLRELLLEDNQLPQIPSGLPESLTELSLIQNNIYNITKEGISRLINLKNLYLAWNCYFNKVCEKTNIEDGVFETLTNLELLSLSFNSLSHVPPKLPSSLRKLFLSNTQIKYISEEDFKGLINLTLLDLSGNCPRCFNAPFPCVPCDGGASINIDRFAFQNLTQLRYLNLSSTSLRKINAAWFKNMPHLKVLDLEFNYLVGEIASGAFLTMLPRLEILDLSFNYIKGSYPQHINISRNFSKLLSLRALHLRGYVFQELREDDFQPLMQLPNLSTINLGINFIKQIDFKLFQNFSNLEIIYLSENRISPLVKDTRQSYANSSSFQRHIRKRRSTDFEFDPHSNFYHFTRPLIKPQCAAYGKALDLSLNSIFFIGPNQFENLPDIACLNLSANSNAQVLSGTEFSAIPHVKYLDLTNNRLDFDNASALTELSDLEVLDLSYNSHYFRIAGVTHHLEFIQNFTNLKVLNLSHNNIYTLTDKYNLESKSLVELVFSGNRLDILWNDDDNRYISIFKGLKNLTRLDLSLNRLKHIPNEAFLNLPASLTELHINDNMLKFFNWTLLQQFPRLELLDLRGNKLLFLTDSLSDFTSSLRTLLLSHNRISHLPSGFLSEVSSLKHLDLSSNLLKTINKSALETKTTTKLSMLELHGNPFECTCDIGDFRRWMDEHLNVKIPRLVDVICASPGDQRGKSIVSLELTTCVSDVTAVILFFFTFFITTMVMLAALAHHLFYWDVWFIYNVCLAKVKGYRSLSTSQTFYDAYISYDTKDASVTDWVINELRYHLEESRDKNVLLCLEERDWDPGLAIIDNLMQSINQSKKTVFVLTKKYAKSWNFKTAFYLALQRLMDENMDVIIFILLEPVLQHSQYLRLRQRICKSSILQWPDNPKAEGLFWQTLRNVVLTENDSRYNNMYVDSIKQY
Experimental: TLR7/8/9 Inhibition Reporter Assays
HEK-Blue™-cells (Invivogen) overexpressing human TLR7, TLR8 or TLR9 receptors were used for screening inhibitors of these receptors using an inducible SEAP (secreted embryonic alkaline phosphatase) reporter gene under the control of the IFN-β minimal promoter fused to five NF-κB and AP-1-binding sites. Briefly, cells are seeded into Greiner 384 well plates (15000 cells per well for TLR7, 20,000 for TLR8 and 25,000 for TLR9) and then treated with test compounds in DMSO to yield a final dose response concentration range of 0.05 nM-50 μM. After a 30 minute compound pre-treatment at room temperature, the cells are then stimulated with a TLR7 ligand (gardiquimod at a final concentration of 7.5 μM), TLR8 ligand (R848 at a final concentration of 15.9 μM) or TLR9 ligand (ODN2006 at a final concentration of 5 nM) to activate NF-κB and AP-1 which induce the production of SEAP. After a 22 hour incubation at 37° C., 5% CO2, SEAP levels are determined with the addition of HEK-Blue™ Detection reagent (Invivogen), a cell culture medium that allows for detection of SEAP, according to manufacturer's specifications. The percent inhibition is determined as the % reduction in the HEK-Blue signal present in wells treated with agonist plus DMSO alone compared to wells treated with a known inhibitor.

human TLR9 = target: T3, human TLR9 (Homo sapiens, UniProt Q9NR96); assay: TLR9 inhibition reporter assay (HEK-Blue SEAP reporter); conditions: HEK-Blue cells overexpressing human TLR9; ODN2006 5 nM; 22 hour incubation
T3 construct: host or cells: HEK-Blue cells
T3 sequence (Q9NR96 26-1032): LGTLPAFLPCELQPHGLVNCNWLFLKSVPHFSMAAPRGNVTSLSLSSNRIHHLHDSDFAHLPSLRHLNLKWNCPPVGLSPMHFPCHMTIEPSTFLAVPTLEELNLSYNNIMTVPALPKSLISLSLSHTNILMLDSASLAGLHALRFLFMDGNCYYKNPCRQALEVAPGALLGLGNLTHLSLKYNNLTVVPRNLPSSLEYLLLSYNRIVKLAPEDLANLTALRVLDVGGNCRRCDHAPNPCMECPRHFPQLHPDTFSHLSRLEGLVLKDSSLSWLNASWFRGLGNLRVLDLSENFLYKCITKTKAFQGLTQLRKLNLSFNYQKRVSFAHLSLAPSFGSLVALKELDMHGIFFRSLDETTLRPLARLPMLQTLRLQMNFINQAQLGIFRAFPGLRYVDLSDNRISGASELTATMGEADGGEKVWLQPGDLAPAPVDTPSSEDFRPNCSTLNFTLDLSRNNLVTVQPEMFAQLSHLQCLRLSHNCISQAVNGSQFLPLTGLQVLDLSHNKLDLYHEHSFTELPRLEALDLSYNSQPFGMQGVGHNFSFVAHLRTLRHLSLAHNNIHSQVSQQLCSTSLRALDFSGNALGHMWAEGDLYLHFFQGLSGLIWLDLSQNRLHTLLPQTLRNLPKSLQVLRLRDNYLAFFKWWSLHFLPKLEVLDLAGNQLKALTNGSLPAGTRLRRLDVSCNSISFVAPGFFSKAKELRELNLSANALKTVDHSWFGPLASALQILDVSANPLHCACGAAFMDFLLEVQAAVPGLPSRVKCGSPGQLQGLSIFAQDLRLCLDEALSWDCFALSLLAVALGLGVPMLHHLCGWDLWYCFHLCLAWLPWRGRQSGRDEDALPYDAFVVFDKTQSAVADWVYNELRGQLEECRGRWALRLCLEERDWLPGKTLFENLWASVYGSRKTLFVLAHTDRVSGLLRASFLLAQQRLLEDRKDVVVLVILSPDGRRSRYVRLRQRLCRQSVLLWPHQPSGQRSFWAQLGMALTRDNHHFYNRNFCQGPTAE
In short: as §1

| Structure (SMILES) | pIC50 (human TLR7) | pIC50 (human TLR8) | pIC50 (human TLR9) |
| --- | --- | --- | --- |
| CC(C)c1c(-c2ccnc3[nH]ncc23)[nH]c2ccc(N3CCNC3=O)cc12 [Example 27, 1-(3-isopropyl-2-(1H-pyrazolo[3,4-b]pyridin-4-yl)-1H-indol-5-yl)imidazolidin-2-one] | 6.74 | 7.85 | < 4.30 |
| COc1ccc(-c2[nH]c3ccc(N4CC(N5CCCNCC5)C4)cc3c2C(C)C)cc1OC [Example 29, 5-(3-(1,4-diazepan-1-yl)azetidin-1-yl)-2-(3,4-dimethoxyphenyl)-3-isopropyl-1H-indole] | 6.12 | 7.57 | 5.43 |
| COc1ccc(-c2[nH]c3ccc(NC4CCC(N(C)CCN(C)C)CC4)cc3c2C(C)C)cc1OC (stereo not drawn) [Example 35, N1-(2-(3,4-dimethoxyphenyl)-3-isopropyl-1H-indol-5-yl)-N4-(2-(dimethylamino)ethyl)-N4-methylcyclohexane-1,4-diamine] | 6.89 | 6.58 | 6.22 |
| COc1ccc(-c2[nH]c3ccc(NC4CCC(NCCN5CCOCC5)CC4)cc3c2C(C)C)cc1OC (stereo not drawn) [Example 47, N1-(2-(3,4-dimethoxyphenyl)-3-isopropyl-1H-indol-5-yl)-N4-(2-morpholinoethyl)cyclohexane-1,4-diamine] | 6.65 | 6.56 | 6.20 |
| COc1ccc(-c2[nH]c3ccc(NC4CCC(N5CCN(c6ccncc6)CC5)CC4)cc3c2C(C)C)cc1OC (stereo not drawn) [Example 59, 2-(3,4-dimethoxyphenyl)-3-isopropyl-N-(4-(4-(pyridin-4-yl)piperazin-1-yl)cyclohexyl)-1H-indol-5-amine] | 6.71 | 6.97 | 6.66 |

Continued, values first:

| pIC50 (human TLR7) | pIC50 (human TLR8) | pIC50 (human TLR9) | Structure (SMILES) |
| --- | --- | --- | --- |
| 6.89 | 7.12 | 5.86 | COc1ccc(-c2[nH]c3ccc(NC(=O)[C@@H]4CCCC[C@@H]4N)cc3c2C(C)C)cc1OC [Example 21, (1R,2S)-2-amino-N-(2-(3,4-dimethoxyphenyl)-3-isopropyl-1H-indol-5-yl)cyclohexane-1-carboxamide] |
| 6.17 | 6.67 | 4.71 | COc1ccc(-c2[nH]c3ccc(NC(=O)[C@H](N)CCC(N)=O)cc3c2C(C)C)cc1OC [Example 22, (R)-2-amino-N1-(2-(3,4-dimethoxyphenyl)-3-isopropyl-1H-indol-5-yl)pentanediamide] |
| 6.01 | 6.36 | < 4.30 | COc1ccc(-c2[nH]c3ccc(NC(=O)[C@@H](N)CCCCN)cc3c2C(C)C)cc1OC [Example 23, (S)-2,6-diamino-N-(2-(3,4-dimethoxyphenyl)-3-isopropyl-1H-indol-5-yl)hexanamide] |
| 5.97 | 6.67 | < 4.30 | COc1ccc(-c2[nH]c3ccc(NC(=O)[C@@H](N)CCC(=O)O)cc3c2C(C)C)cc1OC [Example 24, (S)-4-amino-5-((2-(3,4-dimethoxyphenyl)-3-isopropyl-1H-indol-5-yl)amino)-5-oxopentanoic acid] |
| 6.21 | 7.00 | < 4.30 | COc1ccc(-c2[nH]c3ccc(NC(=O)[C@@H](N)c4ccccc4)cc3c2C(C)C)cc1OC [Example 25, (S)-2-amino-N-(2-(3,4-dimethoxyphenyl)-3-isopropyl-1H-indol-5-yl)-2-phenylacetamide] |
| 5.93 | 6.71 | 4.95 | COc1ccc(-c2[nH]c3ccc(NC(=O)[C@@H](N)C4CCCCC4)cc3c2C(C)C)cc1OC [Example 26, (S)-2-amino-2-cyclohexyl-N-(2-(3,4-dimethoxyphenyl)-3-isopropyl-1H-indol-5-yl)acetamide] |
| 6.82 | 6.95 | 6.60 | COc1ccc(-c2[nH]c3ccc(NC4CCC(N5CCN(c6ccncc6)CC5)CC4)cc3c2C(C)C)cc1OC (stereo not drawn) [Example 60, 2-(3,4-dimethoxyphenyl)-3-isopropyl-N-(4-(4-(pyridin-4-yl)piperazin-1-yl)cyclohexyl)-1H-indol-5-amine] |
